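Growth conditions: 96-well plates. Treatment: test compound, 48 hours, 5 concentrations. Analysis: linear interpolation between bracketing concentrations; unreached endpoints set to highest concentration. GI50 is the concentration that inhibits growth by half.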 Activity calls are given as the source filed them. Rule as the data show it: active = GI50 up to about 1.1 µM and inactive = higher.
Columns and labels:
Assay in all cases: DTP human tumour cell line panel, 48 h
CAKI-1 = test system: CAKI-1
HL-60 = test system: HL-60
HOP-62 = test system: HOP-62
KM12 = test system: KM12
LOX IMVI = test system: LOX IMVI
MDA-N = test system: MDA-N
NCI-H23 = test system: NCI-H23
NCI/ADR-RES = test system: NCI/ADR-RES
OVCAR-5 = test system: OVCAR-5
OVCAR-8 = test system: OVCAR-8
PC-3 = test system: PC-3
RXF 393 = test system: RXF 393
SNB-19 = test system: SNB-19
SR = test system: SR
UACC-62 = test system: UACC-62
UO-31 = test system: UO-31
NCI-H226 = test system: NCI-H226
Malme-3M = test system: Malme-3M
NCI-H522 = test system: NCI-H522
SF-268 = test system: SF-268

Row | SMILES | GI50 (CAKI-1) | GI50 (HL-60) | GI50 (HOP-62) | GI50 (KM12) | GI50 (LOX IMVI) | GI50 (MDA-N) | GI50 (NCI-H23) | GI50 (NCI/ADR-RES) | GI50 (OVCAR-5) | GI50 (OVCAR-8) | GI50 (PC-3) | GI50 (RXF 393) | GI50 (SNB-19) | GI50 (SR) | GI50 (UACC-62) | GI50 (UO-31) | GI50 (NCI-H226) | GI50 (Malme-3M) | GI50 (NCI-H522) | GI50 (SF-268)
1 | COc1ccc2c(c1)/C(=C\c1c(C)nc3n1CCS3)C(=O)N2 | 33.4 µM (inactive) | 15.6 µM (inactive) | 32.3 µM (inactive) | 6.34 µM (inactive) | 26.5 µM (inactive) | 3.29 µM (inactive) | 24.5 µM (inactive) | 26.8 µM (inactive) | 42.3 µM (inactive) | 37 µM (inactive) | 16.3 µM (inactive) | 40.7 µM (inactive) | 33.8 µM (inactive) | 9.14 µM (inactive) | 22.7 µM (inactive) | 34.3 µM (inactive) |  |  |  | 
2 | CN(C)c1ccc(/C=C2\C[C@H]3[C@@H]4CCc5cc(OCCN6CCCC6)ccc5[C@H]4CC[C@]3(C)C2=O)cc1 | 1.45 µM (inactive) |  |  | 1.74 µM (inactive) |  | 1.85 µM (inactive) | 3.25 µM (inactive) | 1.91 µM (inactive) | 2.03 µM (inactive) |  | 1.78 µM (inactive) | 1.57 µM (inactive) | 1.89 µM (inactive) | 0.333 µM (active) | 1.9 µM (inactive) | 1.54 µM (inactive) | 1.82 µM (inactive) |  |  | 
3 | [N-]=[N+]=NC1=NNC2(C(=O)N1)c1ccccc1-c1ccccc12 | > 100 µM (inactive) | > 100 µM (inactive) | > 100 µM (inactive) |  | > 100 µM (inactive) | > 100 µM (inactive) | > 100 µM (inactive) | > 100 µM (inactive) | > 100 µM (inactive) | > 100 µM (inactive) | > 100 µM (inactive) | > 100 µM (inactive) | > 100 µM (inactive) |  | > 100 µM (inactive) | > 100 µM (inactive) | > 100 µM (inactive) | 18.1 µM (inactive) | > 100 µM (inactive) | > 100 µM (inactive)
4 | COc1ccc(/C=C/c2nccc3ccccc23)cc1OC | > 10 µM (inactive) | > 10 µM (inactive) | > 10 µM (inactive) | 8.13 µM (inactive) | 4.57 µM (inactive) | > 10 µM (inactive) | 7.21 µM (inactive) | 9.38 µM (inactive) | > 10 µM (inactive) | > 10 µM (inactive) | > 10 µM (inactive) | > 10 µM (inactive) | > 10 µM (inactive) |  | > 10 µM (inactive) |  | > 10 µM (inactive) | > 10 µM (inactive) | > 10 µM (inactive) | > 10 µM (inactive)
5 | CCCCCCCCCCCCCC(=O)OCC(CCS(=O)(=O)O[C@H]1CC[C@@]2(C)C(=CC[C@@H]3C2CC[C@]2(C)C(=O)CCC32)C1)OC(=O)CCCCCCCCCCCCC (some centres not stated) | > 100 µM (inactive) | > 100 µM (inactive) | > 100 µM (inactive) | > 100 µM (inactive) | > 100 µM (inactive) | > 100 µM (inactive) | > 100 µM (inactive) | > 100 µM (inactive) | > 100 µM (inactive) |  | > 100 µM (inactive) | > 100 µM (inactive) | > 100 µM (inactive) | > 100 µM (inactive) | > 100 µM (inactive) | > 100 µM (inactive) |  | > 100 µM (inactive) |  | > 100 µM (inactive)
6 | CCOC(=O)CCC1(CCC(=O)OCC)CCCCCCCCC(CCC(=O)OCC)(CCC(=O)OCC)C(=O)C1=O | > 100 µM (inactive) |  | > 100 µM (inactive) | > 100 µM (inactive) | > 100 µM (inactive) | > 100 µM (inactive) | > 100 µM (inactive) | > 100 µM (inactive) | > 100 µM (inactive) | > 100 µM (inactive) | > 100 µM (inactive) |  | > 100 µM (inactive) | > 100 µM (inactive) | > 100 µM (inactive) |  | > 100 µM (inactive) | > 100 µM (inactive) | 35.5 µM (inactive) | > 100 µM (inactive)
7 | Cn1c(=O)n2n(c1=O)C1C(=CC2)C2C=CC1n1c(=O)n(C)c(=O)n12 (configuration not stated) | > 100 µM (inactive) | > 100 µM (inactive) | > 100 µM (inactive) | > 100 µM (inactive) | > 100 µM (inactive) | > 100 µM (inactive) | > 100 µM (inactive) | > 100 µM (inactive) | > 100 µM (inactive) | > 100 µM (inactive) | > 100 µM (inactive) | > 100 µM (inactive) | > 100 µM (inactive) |  | > 100 µM (inactive) | > 100 µM (inactive) | > 100 µM (inactive) | > 100 µM (inactive) | > 100 µM (inactive) | > 100 µM (inactive)
8 | CN(C)CCCNC(=O)CCNC(=O)c1cc(NC(=O)c2cc(NC(=O)c3cc(NC(=O)CCCNC(=O)c4cc(NC(=O)c5cc(NC(=O)c6nccn6C)cn5C)cn4C)cn3C)cn2C)cn1C | > 100 µM (inactive) | > 100 µM (inactive) | > 100 µM (inactive) | > 100 µM (inactive) | > 100 µM (inactive) | > 100 µM (inactive) | > 100 µM (inactive) | > 100 µM (inactive) | > 100 µM (inactive) | > 100 µM (inactive) | > 100 µM (inactive) | > 100 µM (inactive) | > 100 µM (inactive) |  |  | > 100 µM (inactive) | > 100 µM (inactive) | > 100 µM (inactive) | > 100 µM (inactive) | > 100 µM (inactive)
9 | COc1ccc(-n2cnc3c(NCC(=O)O)ncnc32)cc1 | > 100 µM (inactive) |  | > 100 µM (inactive) | > 100 µM (inactive) | > 100 µM (inactive) | > 100 µM (inactive) | > 100 µM (inactive) | > 100 µM (inactive) | > 100 µM (inactive) | > 100 µM (inactive) | > 100 µM (inactive) |  | > 100 µM (inactive) | > 100 µM (inactive) | > 100 µM (inactive) | > 100 µM (inactive) | > 100 µM (inactive) | 54.1 µM (inactive) | > 100 µM (inactive) | > 100 µM (inactive)
10 | Cc1ccnc2nc3[nH]c4ccccc4c3cc12 | > 100 µM (inactive) |  | 75.7 µM (inactive) | > 100 µM (inactive) | > 100 µM (inactive) | > 100 µM (inactive) | > 100 µM (inactive) | > 100 µM (inactive) | > 100 µM (inactive) | 66.8 µM (inactive) | > 100 µM (inactive) | > 100 µM (inactive) |  | 71.1 µM (inactive) | > 100 µM (inactive) | > 100 µM (inactive) | > 100 µM (inactive) |  | > 100 µM (inactive) | > 100 µM (inactive)
11 | O=C(O)CO/N=C1/C(=C2/C(=O)Nc3ccccc32)Nc2ccccc21 | 25.8 µM (inactive) | 64.4 µM (inactive) | 86.3 µM (inactive) | 2.99 µM (inactive) | 28.4 µM (inactive) | 50.9 µM (inactive) | 31.6 µM (inactive) | > 100 µM (inactive) | > 100 µM (inactive) | > 100 µM (inactive) | 33.9 µM (inactive) | 19.5 µM (inactive) | > 100 µM (inactive) | 39.5 µM (inactive) | 38.4 µM (inactive) | 65 µM (inactive) |  | 30.5 µM (inactive) | 52.6 µM (inactive) | 35.7 µM (inactive)
12 | CC#C[C@]1(O)CCC2[C@@H]3CCC4=CC(=O)CCC4=C3[C@@H](c3ccc(N(C)C)cc3)C[C@@]21C (some centres not stated) | 5.73 µM (inactive) | 16 µM (inactive) | 20 µM (inactive) | 15.7 µM (inactive) | 16 µM (inactive) | 11.8 µM (inactive) | 21.4 µM (inactive) | 11.5 µM (inactive) | 22.7 µM (inactive) | 26.5 µM (inactive) | 21.7 µM (inactive) |  | 35 µM (inactive) | 14.1 µM (inactive) | 3.36 µM (inactive) | 8.2 µM (inactive) |  | 14.6 µM (inactive) |  | 6.85 µM (inactive)
13 | O=C(NCC(C(=O)OCc1ccccc1)C(=O)OCc1ccccc1)OCc1ccccc1 | > 100 µM (inactive) |  | > 100 µM (inactive) | > 100 µM (inactive) |  | > 100 µM (inactive) | 59.3 µM (inactive) | 42.6 µM (inactive) | > 100 µM (inactive) | > 100 µM (inactive) | 35.4 µM (inactive) | 77.4 µM (inactive) | > 100 µM (inactive) | 37.9 µM (inactive) | > 100 µM (inactive) | 47.9 µM (inactive) | 50.4 µM (inactive) | > 100 µM (inactive) | 72.6 µM (inactive) | > 100 µM (inactive)
14 | O=C(O)CNC(=O)c1ccc([As](=O)(O)O)cc1 | > 100 µM (inactive) | > 100 µM (inactive) | > 100 µM (inactive) | > 100 µM (inactive) | > 100 µM (inactive) | > 100 µM (inactive) | > 100 µM (inactive) | > 100 µM (inactive) | > 100 µM (inactive) | > 100 µM (inactive) | > 100 µM (inactive) | > 100 µM (inactive) | > 100 µM (inactive) |  | > 100 µM (inactive) | > 100 µM (inactive) | > 100 µM (inactive) | > 100 µM (inactive) | > 100 µM (inactive) | > 100 µM (inactive)
15 | S=C1N(/N=C/c2c3ccccc3cc3ccccc23)C(=N\c2ccccc2)/C(=N/c2ccccc2)N1c1ccccc1 | > 100 µM (inactive) |  | > 100 µM (inactive) | > 100 µM (inactive) |  | > 100 µM (inactive) | > 100 µM (inactive) | > 100 µM (inactive) | > 100 µM (inactive) | > 100 µM (inactive) | > 100 µM (inactive) | > 100 µM (inactive) | > 100 µM (inactive) | > 100 µM (inactive) | > 100 µM (inactive) | > 100 µM (inactive) | > 100 µM (inactive) | > 100 µM (inactive) | > 100 µM (inactive) | > 100 µM (inactive)
